What all share (type): functional
Test [1] deals with Staphylococcus aureus. Briefly: Antibacterial activity against methicillin-resistant Staphylococcus aureus N315 assessed as inhibition of bacterial growth by two fold serial dilution method.
Another test deals with Enterococcus faecalis. Briefly: Antibacterial activity against Enterococcus faecalis assessed as inhibition of bacterial growth by two fold serial dilution method.
The subject of test [2] is Staphylococcus aureus. Briefly: Antibacterial activity against Staphylococcus aureus assessed as inhibition of bacterial growth by two fold serial dilution method.
The subject of test [3] is Staphylococcus aureus. Briefly: Antibacterial activity against Staphylococcus aureus 25923 assessed as inhibition of bacterial growth by two fold serial dilution method.
The test system of test [4] is Staphylococcus aureus. Put plainly: Antibacterial activity against Staphylococcus aureus 29213 assessed as inhibition of bacterial growth by two fold serial dilution method.
A further test relates to Klebsiella pneumoniae. Briefly: Antibacterial activity against Klebsiella pneumoniae assessed as inhibition of bacterial growth by two fold serial dilution method.
The test system of test [5] is Escherichia coli. Put plainly: Antibacterial activity against Escherichia coli assessed as inhibition of bacterial growth by two fold serial dilution method.
Test [6] deals with Escherichia coli. Briefly: Antibacterial activity against Escherichia coli 25922 assessed as inhibition of bacterial growth by two fold serial dilution method.
In test [7] the test system is Pseudomonas aeruginosa. Put plainly: Antibacterial activity against Pseudomonas aeruginosa assessed as inhibition of bacterial growth by two fold serial dilution method.
For test [8], the system named is Pseudomonas aeruginosa. Put plainly: Antibacterial activity against Pseudomonas aeruginosa 27853 assessed as inhibition of bacterial growth by two fold serial dilution method.
The subject of another test is Acinetobacter baumannii. Put plainly: Antibacterial activity against Acinetobacter baumannii assessed as inhibition of bacterial growth by two fold serial dilution method.

The record followed here is ChEMBL document CHEMBL5143590, “Dihydropyrimidinone imidazoles as unique structural antibacterial agents for drug-resistant gram-negative pathogens” (Eur J Med Chem, 2022).

Converted amounts (≈) assume the structure as drawn.

In the case of `CCCCc1nc(Cl)c(C2NC(=O)NC(C)=C2C(=O)OCC)n1Cc1ccc(Cl)c(Cl)c1` (stereo not given), the MIC (usually the least concentration at which growth counts as inhibited) with Staphylococcus aureus [1] amounted to 32 µg/mL (≈ 64 µM); in the test with Enterococcus faecalis, 64 µg/mL (≈ 128 µM); in the test with Staphylococcus aureus [2] it was 32 µg/mL (≈ 64 µM); in the test on Staphylococcus aureus [3] it was 32 µg/mL (≈ 64 µM); with Staphylococcus aureus [4], 64 µg/mL (≈ 128 µM); in the test with Klebsiella pneumoniae, 64 µg/mL (≈ 128 µM). Further, the MIC is 128 µg/mL (≈ 256 µM) in the test with Escherichia coli [5]; 64 µg/mL (≈ 128 µM) in the test with Escherichia coli [6]; 128 µg/mL (≈ 256 µM) in the test with Pseudomonas aeruginosa [7]; 64 µg/mL (≈ 128 µM) in the test on Pseudomonas aeruginosa [8]; 128 µg/mL (≈ 256 µM) in the test with Acinetobacter baumannii.
As to `CCCCc1nc(Cl)c(C2NC(=O)NC(CN(c3nnc(C)s3)S(=O)(=O)c3ccc(N)cc3)=C2C(=O)OCC)[nH]1` (stereo not given), the MIC with Staphylococcus aureus [1] worked out at 64 µg/mL (≈ 105 µM); with Enterococcus faecalis it was 8 µg/mL (≈ 13.1 µM); with Staphylococcus aureus [2], 128 µg/mL (≈ 210 µM); in the test on Staphylococcus aureus [3] it was 256 µg/mL (≈ 420 µM); in the test with Staphylococcus aureus [4] it was 128 µg/mL (≈ 210 µM); in the test on Klebsiella pneumoniae it was 64 µg/mL (≈ 105 µM). In addition, the MIC with Escherichia coli [5] was found to be 128 µg/mL (≈ 210 µM); in the test on Escherichia coli [6], 128 µg/mL (≈ 210 µM); with Pseudomonas aeruginosa [7] it was 64 µg/mL (≈ 105 µM); with Pseudomonas aeruginosa [8], 64 µg/mL (≈ 105 µM); in the test on Acinetobacter baumannii it was 128 µg/mL (≈ 210 µM).
Take `C=CCn1c(CCCC)nc(Cl)c1C1NC(=O)NC(C)=C1C(=O)OCC` (stereo not given): the MIC in the test with Staphylococcus aureus [1] was 64 µg/mL (≈ 168 µM); with Enterococcus faecalis it was 64 µg/mL (≈ 168 µM); in the test with Staphylococcus aureus [2], 32 µg/mL (≈ 84 µM); in the test with Staphylococcus aureus [3], 128 µg/mL (≈ 336 µM); with Staphylococcus aureus [4] it was 64 µg/mL (≈ 168 µM); in the test with Klebsiella pneumoniae, 64 µg/mL (≈ 168 µM). Moreover, the MIC in the test on Escherichia coli [5] was 64 µg/mL (≈ 168 µM); in the test with Escherichia coli [6], 64 µg/mL (≈ 168 µM); in the test with Pseudomonas aeruginosa [7] it was 64 µg/mL (≈ 168 µM); with Pseudomonas aeruginosa [8] it was 128 µg/mL (≈ 336 µM); in the test on Acinetobacter baumannii, 64 µg/mL (≈ 168 µM).
Regarding `CCCCc1nc(Cl)c(C2NC(=O)NC(C)=C2C(=O)OCC)n1Cc1ccc(C)cc1` (stereo not given), the MIC was found to be 128 µg/mL (≈ 288 µM) in the test with Staphylococcus aureus [1]; 64 µg/mL (≈ 144 µM) in the test on Enterococcus faecalis; 64 µg/mL (≈ 144 µM) with Staphylococcus aureus [2]; 64 µg/mL (≈ 144 µM) in the test with Staphylococcus aureus [3]; 64 µg/mL (≈ 144 µM) with Staphylococcus aureus [4]; 128 µg/mL (≈ 288 µM) in the test on Klebsiella pneumoniae. Moreover, the MIC in the test on Escherichia coli [5] came to 32 µg/mL (≈ 71.9 µM); in the test on Escherichia coli [6], 32 µg/mL (≈ 71.9 µM); with Pseudomonas aeruginosa [7], 128 µg/mL (≈ 288 µM); in the test with Pseudomonas aeruginosa [8], 64 µg/mL (≈ 144 µM); with Acinetobacter baumannii, 64 µg/mL (≈ 144 µM).
Take `CCCCc1nc(Cl)c(C2NC(=O)NC(C)=C2C(=O)OCC)n1CC` (stereo not given): the MIC amounted to 64 µg/mL (≈ 174 µM) in the test on Staphylococcus aureus [1]; 64 µg/mL (≈ 174 µM) in the test with Enterococcus faecalis; 64 µg/mL (≈ 174 µM) in the test with Staphylococcus aureus [2]; 128 µg/mL (≈ 347 µM) in the test with Staphylococcus aureus [3]; 256 µg/mL (≈ 694 µM) in the test with Staphylococcus aureus [4]; 64 µg/mL (≈ 174 µM) in the test with Klebsiella pneumoniae. Further, the minimal inhibitory concentration (MIC) was 64 µg/mL (≈ 174 µM) in the test with Escherichia coli [5]; 32 µg/mL (≈ 86.8 µM) with Escherichia coli [6]; 64 µg/mL (≈ 174 µM) in the test on Pseudomonas aeruginosa [7]; 128 µg/mL (≈ 347 µM) with Pseudomonas aeruginosa [8]; 128 µg/mL (≈ 347 µM) with Acinetobacter baumannii.
Regarding `Cc1cc(NS(=O)(=O)c2ccc(N)cc2)no1` [SULFAMETHOXAZOLE], the MIC turned out to be 1 µg/mL (≈ 3.95 µM) in the test with Staphylococcus aureus [1]; 64 µg/mL (≈ 253 µM) with Enterococcus faecalis; 32 µg/mL (≈ 126 µM) in the test on Staphylococcus aureus [2]; 128 µg/mL (≈ 505 µM) in the test on Staphylococcus aureus [3]; 16 µg/mL (≈ 63.2 µM) with Staphylococcus aureus [4]; 32 µg/mL (≈ 126 µM) in the test on Klebsiella pneumoniae. Besides, the minimum inhibitory concentration (MIC) was 32 µg/mL (≈ 126 µM) with Escherichia coli [5]; 8 µg/mL (≈ 31.6 µM) with Escherichia coli [6]; 64 µg/mL (≈ 253 µM) with Pseudomonas aeruginosa [7]; 32 µg/mL (≈ 126 µM) with Pseudomonas aeruginosa [8]; 32 µg/mL (≈ 126 µM) in the test with Acinetobacter baumannii.
Take `CCCCc1nc(Cl)c(C2NC(=O)NC(C)=C2C(=O)OCC)n1S(=O)(=O)c1cccc(Cl)c1` (stereo not given): the MIC in the test with Staphylococcus aureus [1] stood at 16 µg/mL (≈ 31 µM); in the test with Enterococcus faecalis it was 32 µg/mL (≈ 62.1 µM); in the test with Staphylococcus aureus [2], 64 µg/mL (≈ 124 µM); in the test with Staphylococcus aureus [3], 32 µg/mL (≈ 62.1 µM); with Staphylococcus aureus [4], 64 µg/mL (≈ 124 µM); in the test on Klebsiella pneumoniae, 64 µg/mL (≈ 124 µM). For the same compound, the minimum inhibitory concentration (MIC) with Escherichia coli [5] amounted to 64 µg/mL (≈ 124 µM); with Escherichia coli [6], 32 µg/mL (≈ 62.1 µM); in the test on Pseudomonas aeruginosa [7] it was 128 µg/mL (≈ 248 µM); in the test with Pseudomonas aeruginosa [8] it was 64 µg/mL (≈ 124 µM); in the test on Acinetobacter baumannii it was 128 µg/mL (≈ 248 µM).
Regarding `CCCCc1nc(Cl)c(C2NC(=O)NC(C)=C2C(=O)OCC)n1Cc1ccc(Cl)cc1` (stereo not given), the MIC in the test on Staphylococcus aureus [1], with Enterococcus faecalis, in the test with Staphylococcus aureus [2], in the test with Staphylococcus aureus [3], in the test on Staphylococcus aureus [4] and with Klebsiella pneumoniae was 64 µg/mL (≈ 138 µM) throughout. Besides, the minimum inhibitory concentration (MIC) in the test on Escherichia coli [5] was determined as 64 µg/mL (≈ 138 µM); with Escherichia coli [6] it was 64 µg/mL (≈ 138 µM); in the test on Pseudomonas aeruginosa [7], 128 µg/mL (≈ 275 µM); in the test on Pseudomonas aeruginosa [8], 64 µg/mL (≈ 138 µM); with Acinetobacter baumannii it was 32 µg/mL (≈ 68.8 µM).
In the case of `CCCCc1nc(Cl)c(C2NC(=O)NC(C)=C2C(=O)OCC)n1Cc1ccccc1Cl` (stereo not given), the MIC turned out to be 16 µg/mL (≈ 34.4 µM) with Staphylococcus aureus [1]; 32 µg/mL (≈ 68.8 µM) in the test with Enterococcus faecalis; 32 µg/mL (≈ 68.8 µM) in the test on Staphylococcus aureus [2]; 16 µg/mL (≈ 34.4 µM) in the test on Staphylococcus aureus [3]; 128 µg/mL (≈ 275 µM) in the test on Staphylococcus aureus [4]; 128 µg/mL (≈ 275 µM) in the test with Klebsiella pneumoniae. For the same compound, the minimum inhibitory concentration (MIC) was 32 µg/mL (≈ 68.8 µM) in the test with Escherichia coli [5]; 32 µg/mL (≈ 68.8 µM) with Escherichia coli [6]; 64 µg/mL (≈ 138 µM) in the test on Pseudomonas aeruginosa [7]; 32 µg/mL (≈ 68.8 µM) with Pseudomonas aeruginosa [8]; 32 µg/mL (≈ 68.8 µM) in the test on Acinetobacter baumannii.
With `CCCCc1nc(Cl)c(C2NC(=O)NC(C)=C2C(=O)OCC)n1S(=O)(=O)c1cccc(Br)c1` (stereo not given), the MIC stood at 32 µg/mL (≈ 57.2 µM) in the test on Staphylococcus aureus [1]; 16 µg/mL (≈ 28.6 µM) in the test on Enterococcus faecalis; 32 µg/mL (≈ 57.2 µM) in the test with Staphylococcus aureus [2]; 64 µg/mL (≈ 114 µM) in the test with Staphylococcus aureus [3]; 64 µg/mL (≈ 114 µM) in the test on Staphylococcus aureus [4]; 16 µg/mL (≈ 28.6 µM) with Klebsiella pneumoniae. The MIC came out at 32 µg/mL (≈ 57.2 µM) in the test with Escherichia coli [5]; 32 µg/mL (≈ 57.2 µM) in the test with Escherichia coli [6]; 32 µg/mL (≈ 57.2 µM) in the test on Pseudomonas aeruginosa [7]; 16 µg/mL (≈ 28.6 µM) in the test with Pseudomonas aeruginosa [8]; 32 µg/mL (≈ 57.2 µM) in the test with Acinetobacter baumannii.
